From US7279468B2, “Integrin ligands” (Abbott GmbH & Co. KG, priority 2000, dated 2007)

Target: T1, integrin αvβ3 (Homo sapiens, UniProt P05106+P06756)
T1 construct: from tissue; host or cells: human placenta
Experiment: Integrin αvβ3 assay (competition between vitronectin and test substance for binding to solid phase-bound integrin αvβ3)
Conditions: competition with human vitronectin, integrin αvβ3 from human placenta, comparison in words only
Method: For the identification and assessment of integrin αvβ3 ligands, a test system was used which was based on competition between the natural integrin αvβ3 ligand vitronectin and the test substance for binding to solid phase-bound integrin αvβ3.
• Microtiter plates coated with 250 ng/ml of integrin αvβ3 in 0.05 M NaHCO3 pH 9.2; 0.1 ml/well; • saturation with 1% powdered milk/assay buffer; 0.3 ml/well; 0.5 h/RT • 3× washing with 0.05% Tween 20/assay buffer • test substance in 0.1% powdered milk/assay buffer, 50 μl/well 0 μg/ml or […] of human vitronectin (Boehringer Ingelheim T007) in 0.1% powdered milk/assay buffer, 50 μl/well; 1 h/RT • 3× washing with 0.05% Tween 20/assay buffer • 1 μg/ml of anti human vitronectin antibody coupled to peroxidase (Kordia SAVN-APHRP) in 0.1% powdered milk/assay buffer; 0.1 ml/well; 1 h/RT • 3× washing with 0.05% Tween 20/assay buffer • 0.1 ml/well of peroxidase substrate • stop reaction with 0.1 ml/well of 2 M H2SO4 • measurement of the absorption at 450 nm • Integrin αvβ3: Human placenta is solubilized with Nonidet and integrin αvβ3 affinity-purified on a GRGDSPK matrix (elution with EDTA). […]

## O=C(O)CC1CCN(CC(=O)NCc2ccc(Nc3nc4ccccc4[nH]3)cc2)C(=O)c2ccccc21 (stereo not shown) [Example II, [2-(2-{[4-(1H-Benzimidazol-2-ylamino)benzyl]amino}-2-oxoethyl)-1-oxo-2,3,4,5-tetrahydro-1H-2-benzazepin-5-yl]acetic acid]
  IC50 values (concentration of the ligand at which 50% of the ligand is displaced): best result
